Experimental data: patent US20100010219A1, “METHOD FOR PRODUCING PYRROLIDINE COMPOUND” (JAPAN TOBACCO INC., priority 2006, published 2010)
Where a name gives a salt, the structure may show the parent alone.

target: T1, human HSD-1 (recombinant HSD-1) (Homo sapiens, UniProt P28845); assay: HSD-1 activity inhibitory action in vitro (SPA, conversion of cortisone to cortisol); format: biochemical; settings: recombinant human HSD-1 expressed using baculovirus system; 10 nM 3H cortisone, 500 μM NADPH; room temperature 90 to 120 min; read-out: hHSD1 (IC50 (nM))
T1 construct: made in house
T1 sequence (P28845 whole entry): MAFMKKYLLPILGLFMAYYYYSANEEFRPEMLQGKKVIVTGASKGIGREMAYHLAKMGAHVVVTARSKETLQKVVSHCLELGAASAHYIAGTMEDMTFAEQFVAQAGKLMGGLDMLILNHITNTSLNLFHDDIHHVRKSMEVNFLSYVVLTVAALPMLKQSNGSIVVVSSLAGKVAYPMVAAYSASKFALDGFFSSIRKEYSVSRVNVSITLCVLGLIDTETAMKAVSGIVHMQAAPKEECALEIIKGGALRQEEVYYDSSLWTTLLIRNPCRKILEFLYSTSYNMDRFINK

| IC50 | Structure (SMILES) |
| --- | --- |
| < 30 nM | O=C(c1cnn(C2CCN(c3ccc(CO)cc3)CC2)c1C1CC1)N1CCC(c2ccccc2C(F)(F)F)C1 (centres unmarked) [Example 166, 1-{5-cyclopropyl-1-[1-(4-hydroxymethylphenyl)piperidin-4-yl]-1H-pyrazole-4-carbonyl}-3-(2-trifluoromethylphenyl)pyrrolidine] |
| < 30 nM | NC(=O)c1ccc(N2CCC(n3ncc(C(=O)N4CCC(c5ccccc5C(F)(F)F)C4)c3C3CC3)CC2)nc1 (centres unmarked) [Example 167, 1-{1-[1-(5-carbamoyl-pyridin-2-yl)piperidin-4-yl]-5-cyclopropyl-1H-pyrazole-4-carbonyl}-3-(2-trifluoromethylphenyl)pyrrolidine] |
| < 30 nM | Nc1ccc(N2CCC(n3ncc(C(=O)N4CCC(c5ccccc5C(F)(F)F)C4)c3C3CC3)CC2)cc1 (centres unmarked) [Example 168, 1-{1-[1-(4-aminophenyl)piperidin-4-yl]-5-cyclopropyl-1H-pyrazole-4-carbonyl}-3-(2-trifluoromethylphenyl)pyrrolidine] |
| < 30 nM | O=C(c1cnn(C2CCN(c3ccc(N4CCOC4=O)cc3)CC2)c1C1CC1)N1CCC(c2ccccc2C(F)(F)F)C1 (centres unmarked) [Example 169, 1-(5-cyclopropyl-1-{1-[4-(2-oxooxazolidin-3-yl)phenyl]piperidin-4-yl}-1H-pyrazole-4-carbonyl)-3-(2-trifluoromethylphenyl)pyrrolidine] |
| < 30 nM | CONC(=O)Nc1ccc(N2CCC(n3ncc(C(=O)N4CCC(c5ccccc5C(F)(F)F)C4)c3C3CC3)CC2)cc1 (centres unmarked) [Example 170, 1-(5-cyclopropyl-1-{1-[4-(3-methoxyureido)phenyl]piperidin-4-yl}-1H-pyrazole-4-carbonyl)-3-(2-trifluoromethylphenyl)pyrrolidine] |
| < 30 nM | CS(=O)(=O)Nc1ccc(N2CCC(n3ncc(C(=O)N4CCC(c5ccccc5C(F)(F)F)C4)c3C3CC3)CC2)cc1 (centres unmarked) [Example 171, 1-{5-cyclopropyl-1-[1-(4-methanesulfonylaminophenyl)piperidin-4-yl]-1H-pyrazole-4-carbonyl}-3-(2-trifluoromethylphenyl)pyrrolidine] |
| < 30 nM | CCONC(=O)N1CCC(n2ncc(C(=O)N3CCC(c4ccccc4C(F)(F)F)C3)c2C2(C)CC2)CC1 (centres unmarked) [Example 172, 1-[1-(1-ethoxycarbamoylpiperidin-4-yl)-5-(1-methylcyclopropyl)-1H-pyrazole-4-carbonyl]-3-(2-trifluoromethylphenyl)pyrrolidine] |
| < 30 nM | O=C(c1cnn(C2CN(c3ccc(Cl)cn3)C2)c1C1CC1)N1CCC(c2ccccc2C(F)(F)F)C1 (centres unmarked) [Example 173] |
| < 30 nM | COCC1(c2ccccc2)CCN(C(=O)c2cnn(C3CCN(c4ccc(Cl)cn4)CC3)c2C2(C)CC2)C1 (centres unmarked) [Example 174, 1-{1-[1-(5-chloropyridin-2-yl)piperidin-4-yl]-5-(1-methylcyclopropyl)-1H-pyrazole-4-carbonyl}-3-methoxymethyl-3-phenylpyrrolidine] |
| < 30 nM | N#Cc1ccc(N2CCC(n3ncc(C(=O)N4CCC(c5ccccc5C(F)(F)F)C4)c3C3CC3)CC2)nc1 (centres unmarked) [Example 175, 1-{1-[1-(5-cyanopyridin-2-yl)piperidin-4-yl]-5-cyclopropyl-1H-pyrazole-4-carbonyl}-3-(2-trifluoromethylphenyl)pyrrolidine] |
| < 30 nM | COC(=O)c1ccc(N2CCC(n3ncc(C(=O)N4CCC(c5ccccc5C(F)(F)F)C4)c3C3CC3)CC2)nc1 (centres unmarked) [Example 178, methyl 6-(4-{5-cyclopropyl-4-[3-(2-trifluoromethylphenyl)pyrrolidine-1-carbonyl]pyrazol-1-yl}piperidin-1-yl)nicotinate] |
| < 30 nM | COC(=O)c1ccccc1C1CCN(C(=O)c2cnn(C3CCN(c4ncccn4)CC3)c2C2(C)CC2)C1 (centres unmarked) [Example 179, methyl 2-{1-[5-(1-methylcyclopropyl)-1-(1-pyrimidin-2-ylpiperidin-4-yl)-1H-pyrazole-4-carbonyl]pyrrolidin-3-yl}benzoate] |
| < 30 nM | CC1(c2c(C(=O)N3CCC(c4ccccc4CO)C3)cnn2C2CCN(c3ncccn3)CC2)CC1 (centres unmarked) [Example 180, 3-(2-hydroxymethylphenyl)-1-{5-(1-methylcyclopropyl)-1-[1-(pyrimidin-2-yl)piperidin-4-yl]-1H-pyrazole-4-carbonyl}pyrrolidine hydrochloride] |
| < 30 nM | CC(=O)Nc1ccc(N2CCC(n3ncc(C(=O)N4CCC(c5ccccc5C(F)(F)F)C4)c3C3CC3)CC2)cc1 (centres unmarked) [Example 182, 1-{1-[1-(4-acetylaminophenyl)piperidin-4-yl]-5-cyclopropyl-1H-pyrazole-4-carbonyl}-3-(2-trifluoromethylphenyl)pyrrolidine] |
| < 30 nM | O=C(O)c1ccc(N2CCC(n3ncc(C(=O)N4CCC(c5ccccc5C(F)(F)F)C4)c3C3CC3)CC2)c(F)c1 (centres unmarked) [Example 183, Sodium 4-(4-{5-cyclopropyl-4-[3-(2-trifluoromethylphenyl)pyrrolidine-1-carbonyl]pyrazol-1-yl}piperidin-1-yl)-3-fluorobenzoate] |
| < 30 nM | N#Cc1ccccc1C1CCN(C(=O)c2cnn(C3CCN(C(=O)Nc4ccccc4F)CC3)c2C2CC2)C1 (centres unmarked) [Example 184, 3-(2-cyanophenyl)-1-{5-cyclopropyl-1-[1-(2-fluorophenylcarbamoyl)piperidin-4-yl]-1H-pyrazole-4-carbonyl}pyrrolidine] |
| < 30 nM | COc1ccnc(N2CCC(n3ncc(C(=O)N4CCC(CO)(c5ccccc5)C4)c3C3(C)CC3)CC2)n1 (centres unmarked) [Example 185, 3-hydroxymethyl-1-{1-[1-(4-methoxypyrimidin-2-yl)piperidin-4-yl]-5-(1-methylcyclopropyl)-1H-pyrazole-4-carbonyl}-3-phenylpyrrolidine hydrochloride] |
| < 30 nM | CC1(c2c(C(=O)N3CCC(CO)(c4cc(F)cc(F)c4)C3)cnn2C2CCN(c3ncccn3)CC2)CC1 (centres unmarked) [Example 186, 3-(3,5-difluorophenyl)-3-hydroxymethyl-1-{5-(1-methylcyclopropyl)-1-[1-(pyrimidin-2-yl)piperidin-4-yl]-1H-pyrazole-4-carbonyl}pyrrolidine hydrochloride] |
| < 30 nM | O=C(c1cnn(C2CCN(c3ncccc3Cl)CC2)c1C1CC1)N1CCC(c2cccnc2)C1 (centres unmarked) [Example 187, 1-{1-[1-(3-chloropyridin-2-yl)piperidin-4-yl]-5-cyclopropyl-1H-pyrazole-4-carbonyl}-3-(pyridin-3-yl)pyrrolidine] |
| < 30 nM | CC(C)[C@@H](C(=O)O)N(C)C(=O)[C@H]1CC[C@H](n2ncc(C(=O)N3CCC(c4ccccc4C(F)(F)F)C3)c2C2CC2)CC1 (stereo partly drawn) [Example 189, (S)-2-[(trans-4-{5-cyclopropyl-4-[3-(2-trifluoromethylphenyl)pyrrolidine-1-carbonyl]pyrazol-1-yl}cyclohexanecarbonyl)methylamino]-3-methylbutyric acid] |
| < 30 nM | CC1(c2c(C(=O)N3CCC(c4ccccc4C(F)(F)F)C3)cnn2[C@H]2CC[C@H](C(=O)Nc3ccccc3F)CC2)CC1 (stereo partly drawn) [Example 190, 1-{5-(1-methylcyclopropyl)-1-[trans-4-(2-fluorophenylcarbamoyl)cyclohexyl]-1H-pyrazole-4-carbonyl}-3-(2-trifluoromethylphenyl)pyrrolidine] |
| < 30 nM | CC1(c2c(C(=O)N3CCC(c4ccccc4C(F)(F)F)C3)cnn2[C@H]2CC[C@@H](C(=O)O)CC2)CC1 (stereo partly drawn) [Example 191, cis-4-{5-(1-methylcyclopropyl)-4-[3-(2-trifluoromethylphenyl)pyrrolidine-1-carbonyl]pyrazol-1-yl}cyclohexanecarboxylic acid] |

| Structure (SMILES) | IC50 |
| --- | --- |
| CC(=O)OCCC1(c2ccc(F)cc2)CCN(C(=O)c2cnn(C3CCN(c4ncccn4)CC3)c2C2(C)CC2)C1 (centres unmarked) [Example 176, 3-(2-acetoxyethyl)-3-(4-fluorophenyl)-1-{5-(1-methylcyclopropyl)-1-[1-(pyrimidin-2-yl)piperidin-4-yl]-1H-pyrazole-4-carbonyl}pyrrolidine hydrochloride] | < 30 nM |
